Columns and labels:
[1] = system: HCV subgenomic replicon; test: HCV replication in GS5 cells (Huh7.5 with HCV subgenomic replicon); assay type: cell-based, hepatitis C virus; conditions: 48 hours
Protocol: FIG. 61 illustrates that DCAMKL-1 is required for the HCV replication. A. siRNA against DCAMKL-1 (Si-DCAMKL1, 50 nM and 100 nM) or scrambled siRNA (SCR, 100 nM) were transfected into GS5 cells. Total RNAs were extracted and subjected to real-time quantitative PCR. The levels of HCV and DCAMKL-1 RNAs were considered arbitrary as one unit in untransfected GS5 cells (Cont). Actin mRNA in each sample was used as internal control for PCR. B. Western blot analysis of siRNAs tranfected and untransfected samples as indicated.
Induction of putative stem cell/pluripotency factors by HCV: Normal adult hepatocytes are fully differentiated cells and lack expression of pluripotency factors. However, these cells can be induced to proliferate rapidly after partial hepatectomy and can also be reprogrammed into stem-like cells by forced expression of a cocktail of transcription factors. Thus, the impact of HCV on expression pattern of stem/progenitor cell markers was investigated in GS5 cells, which are derived from hepatoma cell line (Huh7.5) and support constitutive replication of a subgenomic HCV replicon under G418 selection. The replicon expresses HCV nonstructural proteins NS3 through NS5B of the HCV-1a strain and green florescent protein (GFP)-NS5A chimera. Total lysates from parent Huh7.5 and GS5 cells were subjected to Western blot analysis (FIG. 59).
Putative intestinal stem cell marker DCAMKL1 is required for the HCV replication: The eccentric, punctate staining of HCV replication complexes consisting of most of the nonstructural proteins and cellular factors has been a puzzling question. It is known that these replication complexes associate with microtubules in order to replicate the HCV RNA. The DCAMKL1 protein, which binds and polymerizes tubulin into microtubule filaments, is considered as a putative marker for quiescent stem cells in the intestine, and its expression is increased in cancer stem cells. During confocal microscopy, most DCAMKL1 localization was consistently observed in the area containing replication complexes (indicated by NS5A-GFP) and high concentration of microtubules (FIG. 60). The perinuclear co-localization of DCAMKL1 with the NS5A-GFP (indicated by yellow stain) was also observed.

[2] = system: PICSCs; test: LIVE/DEAD Viability/Cytotoxicity Assay on PICSCs; assay type: cell-based, mouse; conditions: 48 hours, single agent
Protocol: This Example is directed to stem cell assays utilizing PICSCs generated in accordance with the presently disclosed and claimed inventive concept(s). The PICSCs were generated as described herein above (i.e., transformation of NIH-3T3 cells with RBM3 gene, followed by transplantation into a nude mouse, then sorting of cells obtained from generated tumors utilizing DCAMKL-1).
The PICSCs were exposed to various compounds/anti-cancer agents, and cell viability assays were then performed using the LIVE/DEAD® Viability/Cytotoxicity Assay from Molecular Probes/Invitrogen (Eugene, Oreg.). The LIVE/DEAD® Viability/Cytotoxicity Assay is an assay that provides a two-color fluorescence cell viability that is based on the simultaneous determination of both live and dead cells.
Briefly, PICSCs cells were grown in a 96 well microtitre plate ([…], Newton, N.C.) to about 40% confluency and treated with anti-cancer agents/compounds for 48 hours. Subsequently, chromogenic substrates Calcein AM and Ethidium homodimer-1 (EthD-1) was added to the cells. Calcein AM is well retained within the live cells, producing uniform green fluorescence in live cells (measured at 515 nM). EthD-1 enters cells with damaged membranes and undergoes an enhancement of fluorescence upon binding to nucleic acids, thereby producing a bright red fluorescence in dead cells (measured at 617 nM). The fluorescence measurement was carried out using a microtitre plate reader (Synergy HT, BIO-TEK, Vinooski, Vt.).
In FIGS. 70-84, the PICSCs were treated with increasing concentrations of various compounds or combinations of compounds for 48 hours, and the data presented therein is represented as a % Dead/Live cells ratio following said treatment. […] Values in each figure are given as average±Standard Error Mean, and asterisks denote statistically significant differences (*p<0.01) compared with control.

[3] = system: DCAMKL-1; test: siRNA knockdown of DCAMKL-1 in AsPC-1 pancreatic cancer cells, real-time RT-PCR; assay type: cell-based, human; conditions: AsPC-1 cells
DCAMKL-1, sequence (O15075 other isoform, or with tags, fused parts or gaps): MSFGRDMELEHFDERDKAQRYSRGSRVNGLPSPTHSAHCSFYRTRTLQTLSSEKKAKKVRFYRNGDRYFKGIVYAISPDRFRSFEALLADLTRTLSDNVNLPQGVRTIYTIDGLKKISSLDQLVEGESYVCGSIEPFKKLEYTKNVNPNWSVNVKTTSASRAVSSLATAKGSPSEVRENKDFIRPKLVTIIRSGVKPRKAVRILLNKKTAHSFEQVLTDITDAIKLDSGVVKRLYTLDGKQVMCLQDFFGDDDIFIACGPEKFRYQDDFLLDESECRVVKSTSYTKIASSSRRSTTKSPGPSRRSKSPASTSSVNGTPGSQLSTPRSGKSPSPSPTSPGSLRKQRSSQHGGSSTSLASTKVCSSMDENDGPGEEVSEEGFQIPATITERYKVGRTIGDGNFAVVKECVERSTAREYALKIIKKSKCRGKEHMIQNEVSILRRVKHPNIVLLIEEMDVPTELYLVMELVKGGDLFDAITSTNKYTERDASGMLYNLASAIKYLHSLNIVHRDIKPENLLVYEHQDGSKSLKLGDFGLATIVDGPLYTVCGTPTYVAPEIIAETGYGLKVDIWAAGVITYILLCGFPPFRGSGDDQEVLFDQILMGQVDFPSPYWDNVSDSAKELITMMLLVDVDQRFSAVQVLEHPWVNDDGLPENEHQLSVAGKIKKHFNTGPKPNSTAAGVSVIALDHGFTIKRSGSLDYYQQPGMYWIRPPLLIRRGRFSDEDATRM
Protocol: Cell Culture: AsPC-1 and BxPC3 human pancreatic adenocarcinoma cell lines were obtained from the American Type Culture Collection and grown in Dulbecco's modified Eagle medium (DMEM) supplemented with 10% fetal bovine serum and 100 U/mL penicillin-streptomycin in a humidified chamber at 37° C. with 5% CO2.
Silencer RNA: DCAMKL-1 small interfering RNA (siRNA) (si-DCAMKL-1) sequence targeting the coding region of DCAMKL-1 (accession No. NM_004734; SEQ ID NO:1) ([…]tt (SEQ ID NO:3)) and scrambled siRNAs (si-Scr) not matching any of the human genes were obtained (Ambion Inc, Austin, Tex.) and transfected using siPORT™ NeoFX™ (Ambion, Inc).
Real-time Reverse Transcription-Polymerase Chain Reaction Analyses: Total RNA isolated from human pancreatic cancer cells or cells sorted from normal mouse pancreas were subjected to reverse transcription with Superscript II RNase H-Reverse Transcriptase and random hexanucleotide primers (Invitrogen, Carlsbad, Calif.). The complementary DNA (cDNA) was subsequently used to perform real-time polymerase chain reaction (PCR) by SYBR chemistry (SYBR Green I; Molecular Probes, Eugene, Oreg.) for specific transcripts using gene specific primers and Jumpstart Taq DNA polymerase (Sigma—Aldrich, St. Louis, Mo.). […] The changes in mRNA were expressed as fold change relative to control with ±SEM value.
miRNA Analysis: total RNA isolated from human pancreatic cancer cell lines or cells sorted from normal mouse pancreas was subjected to reverse transcription with Superscript II RNase H-Reverse Transcriptase and random hexanucleotide primers (Invitrogen). The cDNA was subsequently used to perform real-time PCR by SYBR chemistry (SYBR Green I; Molecular Probes) for pri-let-7a, pri-miR-144 and pri-miR-200a transcripts using specific primers and Jumpstart Taq DNA polymerase (Sigma—Aldrich). […] The changes in pri-miRNA were expressed as fold change relative to control with ±SEM values.

## si-DCAMKL-1: siRNA targeting the coding region of DCAMKL-1 (NM_004734), sequence GGGAGUGAGAACAAUCUAC (SEQ ID NO:3) (chemistry not given here; listed as Homo sapiens)
[1]; Western blot
  NS5B polymerase level: decreases
[1]; siRNA 50 nM and 100 nM
  HCV RNA level: decreases
  expression of DCAMKL1: effectively inhibited
[2]
  PICSC cell death (% Dead/Live cells ratio): increasing levels of PICSC cell death
[3]
  E-cadherin expression: upregulation
  Notch-1 expression: significant and a dose dependent downregulation
  Slug mRNA expression: downregulation
  Snail mRNA expression: downregulation
  Twist mRNA expression: downregulation
  ZEB1 expression: downregulation
  ZEB2 expression: downregulation
  c-Myc expression: significant and a dose dependent downregulation
  pri-miR-200a expression: upregulation
[3]; compared to control and siSCR
  increase in pri-miR-144 miRNA expression: 2.5 fold
  reduction of c-Myc mRNA expression: 50%
[3]; compared to control or siSCR
  reduction in KRAS mRNA expression: 45%
  reduction in Notch-1 mRNA: 50%
[3]; compared to siSCR or untreated
  DCAMKL-1 mRNA expression: decreases
  DCAMKL-1 protein: decreases
[3]; real-time RT-PCR
  induction of pri-let-7a miRNA: 3 fold
